The term IC50 denotes the concentration needed to halve the response being measured.

Sequence of urease (P07374 whole entry, looked up): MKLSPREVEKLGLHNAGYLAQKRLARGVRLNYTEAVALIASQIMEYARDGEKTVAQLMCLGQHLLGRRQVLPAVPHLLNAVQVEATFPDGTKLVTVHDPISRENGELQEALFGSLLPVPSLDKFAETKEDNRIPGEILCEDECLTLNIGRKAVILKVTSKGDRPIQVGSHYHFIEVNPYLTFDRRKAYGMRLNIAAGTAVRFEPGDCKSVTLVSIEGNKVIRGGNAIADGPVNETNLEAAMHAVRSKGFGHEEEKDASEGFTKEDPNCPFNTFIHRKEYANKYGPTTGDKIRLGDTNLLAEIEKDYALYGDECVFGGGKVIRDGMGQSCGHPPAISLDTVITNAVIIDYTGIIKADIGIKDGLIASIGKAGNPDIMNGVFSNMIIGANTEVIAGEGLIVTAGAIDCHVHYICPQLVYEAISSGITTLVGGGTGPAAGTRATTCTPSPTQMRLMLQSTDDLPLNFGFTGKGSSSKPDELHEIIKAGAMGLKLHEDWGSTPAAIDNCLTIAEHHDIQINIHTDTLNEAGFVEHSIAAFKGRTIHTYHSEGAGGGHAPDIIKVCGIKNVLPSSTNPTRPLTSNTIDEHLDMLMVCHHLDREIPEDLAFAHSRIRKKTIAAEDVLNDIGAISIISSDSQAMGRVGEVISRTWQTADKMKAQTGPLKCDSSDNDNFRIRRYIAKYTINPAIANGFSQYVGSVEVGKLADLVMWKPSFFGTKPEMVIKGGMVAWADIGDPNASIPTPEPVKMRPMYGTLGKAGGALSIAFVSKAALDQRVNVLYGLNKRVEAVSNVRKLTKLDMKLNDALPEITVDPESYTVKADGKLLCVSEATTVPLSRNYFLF

The test concerns the target urease (Canavalia ensiformis, UniProt P07374). The experiment in a line: urease inhibition, ammonia production by indophenol method. Format: biochemical.
On to `NC(N)=S` [Thiourea, reference compound], for which the IC50 was found to be 23 µM. This counts as double-digit micromolar.
`C=CC1(C)CCC2=C(CCC3C2(C)CCC(O)C3(C)CO)C1` (stereo not drawn) [compound 15, aglycon of virescenoside B] gave an IC50 of 125 µM.
In the case of `C=CC1(C)CCC2C(=CCC3C2(C)CC(O)C(O)C3(C)CO)C1` (stereo not drawn) [compound 14, aglycon of virescenoside A], the IC50 was found to be 139 µM. The IC50 values of the last two molecules are within 1.5-fold of each other.

For the origin of these results see PMC6891331, “Virescenosides from the Holothurian-Associated Fungus Acremonium striatisporum Kmm 4401” (Marine Drugs, 2019).
